Reference: US20240279232A1, “USE OF SUBSTITUTED 5-(4-METHYL-6-PHENYL-4H-BENZO[F]IMIDAZO[1,5-A][1,4] DIAZEPIN-3-YL)-1,2,4-O[…] THE TREATMENT OF INFLAMMATORY CONDITIONS” (priority 2021, published 2024)

How the values were obtained:
[1] = system: GABAA; experiment: PDSP primary binding GABAA; details: PDSP primary screening
Description: (§1) Because reduction of NO could not be reversed by GABAAR antagonists, the possible binding of MP-IV-010 to other cellular receptors was evaluated in collaboration with the NIMH Psychoactive Drug Screening Program.
(§2) Psychoactive Drug Screening Program. Detailed protocols for the primary and secondary radioligand binding assays can be found in the National Institute of Mental Health's Psychoactive Drug Screening Program (NIMH PDSP) Assay Protocol Book. Briefly, primary and secondary radioligand binding assays are carried out in a final of volume of 125 μL per well in appropriate binding buffer. The radioactive ligand concentration is close to the Kd. Total binding and nonspecific binding are determined in the absence and presence of 10 μM of appropriate reference compound, respectively. In brief, plates are usually incubated at room temperature and in the dark for 90 min. Reactions are stopped by vacuum filtration onto 0.3% polyethyleneimine (PEI) soaked 96-well filter mats using a 96-well Filtermate harvester, followed by three washes with cold PBS buffer. Scintillation cocktail is then melted onto the microwave-dried filters on a hot plate and radioactivity counted in a Microbeta counter. The data (n=6) were analyzed by nonlinear regression.

[2] = target: α3β3γ2 GABAAR (Homo sapiens, UniProt P18507+P34903); experiment: Membrane potential red dye assay; type: cell-based
Sequence of α3β3γ2 GABAAR (P34903 29-492): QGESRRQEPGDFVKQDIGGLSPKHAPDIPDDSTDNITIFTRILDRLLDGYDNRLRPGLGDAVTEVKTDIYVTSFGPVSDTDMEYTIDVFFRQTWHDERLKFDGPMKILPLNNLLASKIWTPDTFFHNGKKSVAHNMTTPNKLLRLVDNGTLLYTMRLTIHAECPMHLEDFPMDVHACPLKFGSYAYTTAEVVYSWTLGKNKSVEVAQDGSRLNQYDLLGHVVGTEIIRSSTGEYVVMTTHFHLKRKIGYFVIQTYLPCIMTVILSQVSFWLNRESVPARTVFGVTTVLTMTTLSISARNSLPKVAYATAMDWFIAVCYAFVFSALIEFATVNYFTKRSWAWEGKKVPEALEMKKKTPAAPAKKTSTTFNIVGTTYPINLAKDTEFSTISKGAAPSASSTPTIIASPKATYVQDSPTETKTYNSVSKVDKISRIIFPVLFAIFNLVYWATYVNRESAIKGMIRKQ
Sequence of α3β3γ2 GABAAR (P28472 26-473 partner): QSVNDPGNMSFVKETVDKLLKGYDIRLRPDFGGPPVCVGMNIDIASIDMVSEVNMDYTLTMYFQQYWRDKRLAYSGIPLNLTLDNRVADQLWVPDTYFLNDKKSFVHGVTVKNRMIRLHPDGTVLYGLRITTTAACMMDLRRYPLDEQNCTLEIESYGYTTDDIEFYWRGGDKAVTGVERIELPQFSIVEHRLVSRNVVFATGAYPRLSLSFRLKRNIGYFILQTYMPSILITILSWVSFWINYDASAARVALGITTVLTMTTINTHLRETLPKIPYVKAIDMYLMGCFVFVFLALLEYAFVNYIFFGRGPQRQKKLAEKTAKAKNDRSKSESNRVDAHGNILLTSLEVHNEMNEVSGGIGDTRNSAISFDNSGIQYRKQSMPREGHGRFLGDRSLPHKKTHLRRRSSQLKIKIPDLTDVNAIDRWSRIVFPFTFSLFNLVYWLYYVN
Sequence of α3β3γ2 GABAAR (P18507 40-475): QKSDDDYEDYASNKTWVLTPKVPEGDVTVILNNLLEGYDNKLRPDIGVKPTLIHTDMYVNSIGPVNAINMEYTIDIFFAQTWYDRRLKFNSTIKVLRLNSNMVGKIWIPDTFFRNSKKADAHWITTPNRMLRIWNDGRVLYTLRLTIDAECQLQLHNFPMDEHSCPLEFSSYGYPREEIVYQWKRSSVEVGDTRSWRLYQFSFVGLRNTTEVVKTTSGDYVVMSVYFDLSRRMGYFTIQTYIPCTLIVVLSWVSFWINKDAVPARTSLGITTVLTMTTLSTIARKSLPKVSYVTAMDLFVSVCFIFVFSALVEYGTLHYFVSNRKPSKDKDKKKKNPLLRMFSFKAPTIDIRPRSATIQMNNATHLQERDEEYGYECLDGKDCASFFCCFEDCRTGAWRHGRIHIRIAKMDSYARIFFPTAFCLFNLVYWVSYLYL
Description: To determine the affinity of MP-IV-010 for these receptors, concentration dependent assays were carried out as depicted in FIG. 4A-4C.

[3] = target: 5-HT6 (Homo sapiens, UniProt P50406); experiment: PDSP primary binding 5-HT6; details: PDSP primary screening
Sequence of 5-HT6 (P50406 whole entry, species assumed): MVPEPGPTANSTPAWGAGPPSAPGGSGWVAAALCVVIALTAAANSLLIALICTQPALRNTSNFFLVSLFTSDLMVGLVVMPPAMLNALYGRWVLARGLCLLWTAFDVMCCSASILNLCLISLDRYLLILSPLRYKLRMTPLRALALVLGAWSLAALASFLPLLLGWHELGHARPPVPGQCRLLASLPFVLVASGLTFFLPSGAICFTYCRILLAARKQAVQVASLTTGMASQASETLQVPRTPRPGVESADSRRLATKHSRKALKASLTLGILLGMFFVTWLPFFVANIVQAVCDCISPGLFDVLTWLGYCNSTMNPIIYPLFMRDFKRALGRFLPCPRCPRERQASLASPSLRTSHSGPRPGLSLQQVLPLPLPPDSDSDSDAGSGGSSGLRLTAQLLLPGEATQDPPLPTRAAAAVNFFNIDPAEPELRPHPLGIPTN
Description: as §1, §2

[4] = target: M3 (Homo sapiens, UniProt P20309); experiment: PDSP primary binding M3; details: PDSP primary screening
Sequence of M3 (P20309 whole entry): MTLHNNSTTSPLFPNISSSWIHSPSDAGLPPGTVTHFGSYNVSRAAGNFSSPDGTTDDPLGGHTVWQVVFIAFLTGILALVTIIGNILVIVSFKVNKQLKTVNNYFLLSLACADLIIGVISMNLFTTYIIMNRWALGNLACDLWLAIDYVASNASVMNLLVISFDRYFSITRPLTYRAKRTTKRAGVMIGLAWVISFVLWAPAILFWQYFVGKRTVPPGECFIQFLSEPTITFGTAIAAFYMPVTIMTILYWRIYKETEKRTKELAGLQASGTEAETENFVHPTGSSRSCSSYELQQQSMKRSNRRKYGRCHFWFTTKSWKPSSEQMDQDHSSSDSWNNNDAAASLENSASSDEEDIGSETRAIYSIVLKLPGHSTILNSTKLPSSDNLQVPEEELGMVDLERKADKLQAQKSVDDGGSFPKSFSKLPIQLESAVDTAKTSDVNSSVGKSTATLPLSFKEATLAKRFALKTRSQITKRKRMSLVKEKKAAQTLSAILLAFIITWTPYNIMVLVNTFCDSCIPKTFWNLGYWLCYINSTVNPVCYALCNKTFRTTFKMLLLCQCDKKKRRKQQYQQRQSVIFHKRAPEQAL
Description: as §1, §2

[5] = target: Beta1 (Homo sapiens, UniProt P08588); experiment: PDSP primary binding Beta1; details: PDSP primary screening
Sequence of Beta1 (P08588 whole entry): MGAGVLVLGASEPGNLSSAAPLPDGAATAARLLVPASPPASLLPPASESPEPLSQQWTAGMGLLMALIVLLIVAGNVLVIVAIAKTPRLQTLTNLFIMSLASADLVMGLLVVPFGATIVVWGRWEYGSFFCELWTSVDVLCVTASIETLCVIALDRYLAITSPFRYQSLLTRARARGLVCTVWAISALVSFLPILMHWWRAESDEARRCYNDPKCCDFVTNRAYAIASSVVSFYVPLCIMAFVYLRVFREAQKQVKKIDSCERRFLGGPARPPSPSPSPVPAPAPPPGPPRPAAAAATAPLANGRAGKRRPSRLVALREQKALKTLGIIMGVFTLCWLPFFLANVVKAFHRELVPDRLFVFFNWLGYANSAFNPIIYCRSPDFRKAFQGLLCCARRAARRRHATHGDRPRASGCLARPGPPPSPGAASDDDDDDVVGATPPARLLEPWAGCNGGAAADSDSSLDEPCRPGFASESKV
Description: as §1, §2

[6] = target: T1, σ2 receptor (Homo sapiens, UniProt Q5BJF2); experiment: σ2 receptor binding (3H-ditolylguanidine, HEK cell lysate)
T1 construct: expressed in transfected cells; host or cells: HEK cells (stably transfected)
T1 sequence (Q5BJF2 whole entry, species assumed): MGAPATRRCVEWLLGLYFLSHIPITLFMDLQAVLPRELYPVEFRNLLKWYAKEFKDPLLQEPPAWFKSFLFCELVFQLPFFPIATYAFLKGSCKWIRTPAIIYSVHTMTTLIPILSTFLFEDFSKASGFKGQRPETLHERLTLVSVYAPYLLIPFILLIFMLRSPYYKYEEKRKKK
Description: as §2

[7] = target: NET (Homo sapiens, UniProt P23975); experiment: PDSP primary binding NET; details: PDSP primary screening
Sequence of NET (P23975 whole entry): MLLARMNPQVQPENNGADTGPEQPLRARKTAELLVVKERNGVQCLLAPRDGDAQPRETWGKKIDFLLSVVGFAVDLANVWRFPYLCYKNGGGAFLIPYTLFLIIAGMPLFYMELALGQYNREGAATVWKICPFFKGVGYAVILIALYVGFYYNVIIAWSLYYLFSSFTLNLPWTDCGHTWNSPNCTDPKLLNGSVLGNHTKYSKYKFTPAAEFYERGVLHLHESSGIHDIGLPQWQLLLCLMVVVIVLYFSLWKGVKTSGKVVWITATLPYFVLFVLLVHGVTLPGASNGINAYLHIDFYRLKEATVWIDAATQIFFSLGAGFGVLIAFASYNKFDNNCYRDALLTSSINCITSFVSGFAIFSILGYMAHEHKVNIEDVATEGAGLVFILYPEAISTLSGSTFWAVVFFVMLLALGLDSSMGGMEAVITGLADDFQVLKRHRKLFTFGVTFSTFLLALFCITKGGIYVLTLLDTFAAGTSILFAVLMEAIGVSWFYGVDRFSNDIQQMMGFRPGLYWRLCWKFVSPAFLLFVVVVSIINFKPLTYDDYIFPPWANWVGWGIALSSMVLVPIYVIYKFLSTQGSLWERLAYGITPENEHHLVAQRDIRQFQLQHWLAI
Description: as §1, §2

[8] = target: 5-HT5A (Homo sapiens, UniProt P47898); experiment: PDSP primary binding 5-HT5A; details: PDSP primary screening
Sequence of 5-HT5A (P47898 whole entry, species assumed): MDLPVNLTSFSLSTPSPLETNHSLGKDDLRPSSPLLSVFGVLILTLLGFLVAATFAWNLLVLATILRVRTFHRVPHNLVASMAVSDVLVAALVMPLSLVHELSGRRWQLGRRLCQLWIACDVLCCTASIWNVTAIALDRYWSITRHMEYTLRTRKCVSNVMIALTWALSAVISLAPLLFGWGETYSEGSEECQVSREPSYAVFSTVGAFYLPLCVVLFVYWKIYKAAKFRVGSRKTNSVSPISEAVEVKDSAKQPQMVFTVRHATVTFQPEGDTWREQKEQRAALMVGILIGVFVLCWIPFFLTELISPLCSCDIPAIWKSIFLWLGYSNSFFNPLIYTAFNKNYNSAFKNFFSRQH
Description: as §1, §2

[9] = target: SERT (Homo sapiens, UniProt P31645); experiment: PDSP primary binding SERT; details: PDSP primary screening
Sequence of SERT (P31645 whole entry, species assumed): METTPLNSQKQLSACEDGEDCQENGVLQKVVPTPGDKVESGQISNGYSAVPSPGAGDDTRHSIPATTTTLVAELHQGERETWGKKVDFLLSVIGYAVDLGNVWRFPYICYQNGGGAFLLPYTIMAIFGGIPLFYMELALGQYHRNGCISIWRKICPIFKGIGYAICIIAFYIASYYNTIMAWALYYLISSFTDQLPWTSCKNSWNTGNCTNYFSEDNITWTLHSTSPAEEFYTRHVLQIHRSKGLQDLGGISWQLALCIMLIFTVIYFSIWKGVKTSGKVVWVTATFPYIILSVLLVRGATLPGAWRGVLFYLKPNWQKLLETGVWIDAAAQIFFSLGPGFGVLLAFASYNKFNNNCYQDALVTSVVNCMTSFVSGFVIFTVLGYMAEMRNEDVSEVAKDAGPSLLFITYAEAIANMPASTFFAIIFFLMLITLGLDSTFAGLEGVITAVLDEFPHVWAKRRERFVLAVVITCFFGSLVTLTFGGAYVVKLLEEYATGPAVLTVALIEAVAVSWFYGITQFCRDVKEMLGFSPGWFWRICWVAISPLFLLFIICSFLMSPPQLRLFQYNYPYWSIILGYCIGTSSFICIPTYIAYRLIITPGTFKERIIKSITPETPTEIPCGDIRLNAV
Description: as §1, §2

[10] = system: iNOS protein; experiment: iNOS ELISA in activated microglia; type: cell-based, mouse; details: 10 μM, 24 h treatment, vs vehicle
Description: Mouse microglia were activated with IFNγ/LPS and treated with vehicle or 10 μM GL-IV-03. mRNA was isolated after 15 min, 1 h, 3 h and 6 h and iNOS was quantified using RT-qPCR. Cycle numbers for each sample were normalized to GAPDH using the ΔCt method (n=3). Mouse microglia were activated with IFNγ/LPS and treated with vehicle or 10 μM GL-IV-03 for 24 h. Cellular protein was extracted and analyzed with the mouse iNOS ELISA kit from Abcam (n=3). *, (p<0.05), ** (p<0.01) or *** (p<0.001) significance was calculate with ANOVA.
iNOS ELISA. Mouse microglia (2 mL of 500,000 cells/mL cell solution) were activated with 50 ng/mL LPS (Invivogen, NC9836) and 150 U/mL IFNγ (R&D Systems, 485M1100), and treated with compounds of interest in 6 well plates (VWR, 10062-892) for 24 hours. […] Cells were lysed with RIPA buffer and protein concentration quantified with the Pierce Rapid Gold BCA Protein Assay Kit (Thermo Scientific, A53227). Samples at 50 μg/mL were analyzed with the Mouse iNOS ELISA kit (ABCAM, ab253219). Absorbance (λ: 450 nm) was measured using a TECAN Infinite M1000 plate reader. Each measurement was carried with an n=3 and significance analyzed by ANOVA.

[11] = system: Swiss Webster mice; experiment: Formalin test; type: in vivo, mouse; details: orally; GL-IV-03 10 mg/kg; ketoprofen 30 mg/kg
Description: Webster mice were treated orally four days in advance with indicated compounds and doses before the injection of 2% formalin in the right hind paw. Mice were evaluated during the first 5 min (phase 1) and after 20 minutes (phase 2) for 5 minutes in 5 seconds intervals Licking and biting the right hind paw during a 5 second interval was noted and combined as total time addressing the injected paw. Data is given as mean with SEM (n =8). ** indicate p<0.01 (unpaired t-test).
The antinociceptive effect of GL-IV-03 was investigated with the formalin test. Paw injections of formalin elicited a biphasic pain response separated in time (1-5 minutes and 20-60 minutes). […] Sensorimotor impairment and sedation were investigated with mice that were trained to balance on a rotating rod over a period of three minutes (rotarod). The amount of time that mice remained balanced on the rod after intraperitoneal (i.p.) and oral (p.o.) treatment with GL-IV-03 and MP-IV-010 is summarized in FIG. 7B-7C. […] The effect was similar to non-steroidal anti-inflammatory drug ketoprofen at 30 mg/kg. Sedation and inhibition of sensorimotor coordination can influence licking and biting pain behaviors, prompting rotarod studies for GL-IV-03 and MP-IV-010. […] In contrast to diazepam, a benzodiazepine with high affinity for the α1β2/3γ2 and other GABAAR subtypes, was sedating at 5 mg/kg.
Formalin test. […]

**Q.** Which “Percent Competition GABAA” value [1] does the source give for C#Cc1ccc2c(c1)C(c1ccccc1F)=N[C@H](C)c1c(-c3nc(C(C)C)no3)ncn1-2 [MP-IV-010, (R)-5-(8-ethynyl-6-(2-fluorophenyl)-4-methyl-4H-benzo[f]imidazo[1,5-a][1,4]diazepin-3-yl)-3-isopropyl-1,2,4-oxadiazole] here?
**A.** −8%

**Q.** What about the EC50 [2] of the same molecule?
**A.** 14.3 µM

**Q.** What about the “Percent Competition 5-HT6” value [3] of the same molecule?
**A.** 21%

**Q.** What about the “Percent Competition M3” value [4] of the same molecule?
**A.** 0%

**Q.** And the “Percent Competition Beta1” value [5]?
**A.** 6%

**Q.** What about the IC50 [6] of the same molecule?
**A.** 5.2 µM

**Q.** And the “Percent Competition Sigma 2” value ([6]; PDSP primary screening)?
**A.** 64%

**Q.** And the “Percent Competition NET” value [7]?
**A.** −2%

**Q.** And the “Percent Competition 5-HT5A” value [8]?
**A.** 11%

**Q.** And the “Percent Competition SERT” value [9]?
**A.** 22%

**Q.** Which results are given for CCc1noc(-c2ncn3c2[C@@H](C)N=C(c2ccccc2F)c2cc(C4CC4)ccc2-3)n1 [GL-IV-03, (R)-5-(8-Cyclopropyl-6-(2-fluorophenyl)-4-methyl-4H-benzo[f]imidazo[1,5-a][1,4]diazepin-3-yl)-3-ethyl-1,2,4-oxadiazole]?
**A.** amount of iNOS protein [10]: significantly lower; antinociceptive effect, formalin test (phase 1 and 2) [11]: antinociceptive effects in both acute pain (phase 1) and inflammation mediated pain (phase 2)
